Measured values from ChEMBL document CHEMBL6074661, “Structural Modification and Pharmacological Evaluation of (Thiadiazol-2-yl)pyrazines as Novel Piezo1 Agonists for the Intervention of Disuse Osteoporosis” (J Med Chem, 2024).
In brackets after ≈: the same amount, converted by molar mass. Activity calls are given as the source filed them. The rule behind the calls is not given here.

Columns and labels:
[1] = molecular target: Piezo-type mechanosensitive ion channel component 1 (Mus musculus) (UniProt E2JF22); assay: Agonist activity at Piezo1 in mouse C3H 10T1/2 cells assessed as influx of calcium ions by measuring change in ratio of calcium fluorescence at 20 uM incubated for 2 hrs by Cal-bryte 520 AM dye based analysis relative to control; assay type: cell-based
Sequence of Piezo-type mechanosensitive ion channel component 1 (Mus musculus) (E2JF22 whole entry): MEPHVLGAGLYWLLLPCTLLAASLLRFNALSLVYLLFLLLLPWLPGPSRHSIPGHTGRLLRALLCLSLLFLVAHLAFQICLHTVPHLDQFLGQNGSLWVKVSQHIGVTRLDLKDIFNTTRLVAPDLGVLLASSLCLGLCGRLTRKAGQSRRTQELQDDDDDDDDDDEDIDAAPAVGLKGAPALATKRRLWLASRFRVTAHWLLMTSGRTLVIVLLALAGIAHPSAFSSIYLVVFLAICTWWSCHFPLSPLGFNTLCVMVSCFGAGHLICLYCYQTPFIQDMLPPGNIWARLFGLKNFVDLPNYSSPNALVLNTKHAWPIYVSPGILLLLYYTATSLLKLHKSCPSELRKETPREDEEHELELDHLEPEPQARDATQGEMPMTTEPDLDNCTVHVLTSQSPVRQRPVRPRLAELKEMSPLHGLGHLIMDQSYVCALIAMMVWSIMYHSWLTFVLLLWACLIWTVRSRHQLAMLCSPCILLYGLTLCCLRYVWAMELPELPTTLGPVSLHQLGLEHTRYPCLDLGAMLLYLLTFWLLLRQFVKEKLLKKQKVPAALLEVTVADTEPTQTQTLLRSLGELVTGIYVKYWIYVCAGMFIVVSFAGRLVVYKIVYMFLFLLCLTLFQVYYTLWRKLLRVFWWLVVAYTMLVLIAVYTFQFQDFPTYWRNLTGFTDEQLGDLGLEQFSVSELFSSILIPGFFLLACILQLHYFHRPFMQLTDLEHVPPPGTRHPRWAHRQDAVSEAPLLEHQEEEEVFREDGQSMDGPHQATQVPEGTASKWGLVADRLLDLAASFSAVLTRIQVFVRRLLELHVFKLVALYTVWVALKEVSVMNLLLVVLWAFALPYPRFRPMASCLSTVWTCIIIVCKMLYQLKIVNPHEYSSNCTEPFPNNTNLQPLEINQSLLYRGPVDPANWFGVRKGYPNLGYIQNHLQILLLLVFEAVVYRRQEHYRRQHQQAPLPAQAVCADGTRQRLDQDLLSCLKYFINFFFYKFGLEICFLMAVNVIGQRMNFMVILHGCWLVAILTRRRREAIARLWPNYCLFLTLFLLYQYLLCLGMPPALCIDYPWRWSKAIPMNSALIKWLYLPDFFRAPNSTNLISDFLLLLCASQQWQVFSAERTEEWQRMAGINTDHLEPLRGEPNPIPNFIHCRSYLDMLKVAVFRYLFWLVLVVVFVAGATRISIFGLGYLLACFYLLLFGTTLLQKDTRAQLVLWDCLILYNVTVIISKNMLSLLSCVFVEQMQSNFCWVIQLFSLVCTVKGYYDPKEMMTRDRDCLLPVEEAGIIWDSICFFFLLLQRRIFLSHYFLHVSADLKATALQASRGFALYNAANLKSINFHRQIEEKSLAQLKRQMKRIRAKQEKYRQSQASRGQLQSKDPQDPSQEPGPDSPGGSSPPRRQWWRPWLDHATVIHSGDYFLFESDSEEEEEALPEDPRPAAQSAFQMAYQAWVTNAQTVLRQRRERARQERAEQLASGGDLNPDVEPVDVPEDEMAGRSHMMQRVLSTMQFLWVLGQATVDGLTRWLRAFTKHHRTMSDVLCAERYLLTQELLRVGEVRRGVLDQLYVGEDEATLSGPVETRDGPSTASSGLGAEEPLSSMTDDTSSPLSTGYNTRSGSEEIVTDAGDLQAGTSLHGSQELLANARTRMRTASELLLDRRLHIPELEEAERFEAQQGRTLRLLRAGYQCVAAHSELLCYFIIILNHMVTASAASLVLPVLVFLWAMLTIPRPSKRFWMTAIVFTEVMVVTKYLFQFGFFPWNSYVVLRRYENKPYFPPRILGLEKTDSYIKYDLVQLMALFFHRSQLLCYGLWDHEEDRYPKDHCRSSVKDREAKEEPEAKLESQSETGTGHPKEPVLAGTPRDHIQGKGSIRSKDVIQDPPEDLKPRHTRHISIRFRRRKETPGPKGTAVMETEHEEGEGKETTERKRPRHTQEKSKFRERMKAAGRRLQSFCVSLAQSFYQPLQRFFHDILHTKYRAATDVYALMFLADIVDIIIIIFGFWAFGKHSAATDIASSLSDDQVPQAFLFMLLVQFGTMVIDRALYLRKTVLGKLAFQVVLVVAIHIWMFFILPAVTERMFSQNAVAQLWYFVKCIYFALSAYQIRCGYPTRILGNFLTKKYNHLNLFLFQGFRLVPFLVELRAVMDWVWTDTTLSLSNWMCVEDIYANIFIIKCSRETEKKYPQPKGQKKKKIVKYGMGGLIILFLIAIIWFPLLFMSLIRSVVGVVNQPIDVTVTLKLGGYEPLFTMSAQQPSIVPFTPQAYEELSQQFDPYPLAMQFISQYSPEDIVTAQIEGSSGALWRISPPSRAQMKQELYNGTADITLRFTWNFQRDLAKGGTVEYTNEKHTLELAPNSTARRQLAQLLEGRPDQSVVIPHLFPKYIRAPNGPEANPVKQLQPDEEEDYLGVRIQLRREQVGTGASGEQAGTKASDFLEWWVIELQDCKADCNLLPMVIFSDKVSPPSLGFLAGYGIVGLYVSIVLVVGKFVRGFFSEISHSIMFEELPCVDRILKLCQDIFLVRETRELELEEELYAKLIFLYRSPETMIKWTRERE

[2] = system: BMSC; assay: Induction of osteogenesis in BMSC cells (unknown origin) assessed as increase in Runx2 mRNA level incubated for 3 days by RT-qPCR analysis; assay type: functional, cell-based; details: dose 3-5 µM, time 3.0 day, tested as the 2H-labelled form
[3] = system: Rattus norvegicus; assay: Inhibition of disuse osteoporosis in hind-limb unloading Sprague-Dawley rat model assessed as decrease in trabecular separation at 5 uM/kg, ip administered on day 1, 4, 7, 10, 13 and measured on day 14 by micro-CT analysis; assay type: functional, organism-based; details: time 14.0 day, tested as the 2H-labelled form
[4] = molecular target: Piezo-type mechanosensitive ion channel component 1 (Rattus norvegicus) (UniProt Q0KL00); assay: Agonist activity at Piezo1 in rat BMSC cells assessed as increase in p-Erk level at 5 uM incubated for 5 mins by Western blot analysis; assay type: cell-based; details: filed as activator, tested as the 2H-labelled form
[5] = system: Rattus norvegicus; assay: Inhibition of disuse osteoporosis in hind-limb unloading Sprague-Dawley rat model assessed as increase in bone volume fraction at 5 uM/kg, ip administered on day 1, 4, 7, 10, 13 and measured on day 14 by micro-CT analysis; assay type: functional, organism-based; details: time 14.0 day, tested as the 2H-labelled form
[6] = molecular target: Piezo-type mechanosensitive ion channel component 1 (Mus musculus) (UniProt E2JF22); assay: Potency index, ratio of Yoda1 EC50 to test compound […] for agonist activity at Piezo1 in mouse C3H 10T1/2 cells assessed as influx of calcium ions incubated for 2 hrs by Cal-bryte 520 AM dye based analysis; assay type: cell-based; details: filed as agonist, tested as the 2H-labelled form
[7] = system: Rattus norvegicus; assay: Inhibition of disuse osteoporosis in hind-limb unloading Sprague-Dawley rat model assessed as increase in trabecular number at 5 uM/kg, ip administered on day 1, 4, 7, 10, 13 and measured on day 14 by micro-CT analysis; assay type: functional, organism-based; details: time 14.0 day, tested as the 2H-labelled form
[8] = system: Rattus norvegicus; assay: Induction of osteogenesis in hind-limb unloading Sprague-Dawley rat model assessed as increase in ALP fluorescent area at 5 uM/kg, ip administered on day 1, 4, 7, 10, 13 and measured on day 14 by immunofluorescence based analysis; assay type: functional, organism-based; details: time 14.0 day, tested as the 2H-labelled form
[9] = system: BMSC; assay: Induction of osteogenesis in BMSC cells (unknown origin) assessed as increase in Osx mRNA level at 5 uM incubated for 3 days by RT-qPCR analysis; assay type: functional, cell-based; details: time 3.0 day, tested as the 2H-labelled form
[10] = molecular target: T1, Piezo-type mechanosensitive ion channel component 1 (Homo sapiens, UniProt Q92508); assay: Potency index, ratio of Yoda1 EC50 to test compound EC50 for agonist activity at Piezo1 (unknown origin); details: filed as agonist
T1 sequence (Q92508 whole entry): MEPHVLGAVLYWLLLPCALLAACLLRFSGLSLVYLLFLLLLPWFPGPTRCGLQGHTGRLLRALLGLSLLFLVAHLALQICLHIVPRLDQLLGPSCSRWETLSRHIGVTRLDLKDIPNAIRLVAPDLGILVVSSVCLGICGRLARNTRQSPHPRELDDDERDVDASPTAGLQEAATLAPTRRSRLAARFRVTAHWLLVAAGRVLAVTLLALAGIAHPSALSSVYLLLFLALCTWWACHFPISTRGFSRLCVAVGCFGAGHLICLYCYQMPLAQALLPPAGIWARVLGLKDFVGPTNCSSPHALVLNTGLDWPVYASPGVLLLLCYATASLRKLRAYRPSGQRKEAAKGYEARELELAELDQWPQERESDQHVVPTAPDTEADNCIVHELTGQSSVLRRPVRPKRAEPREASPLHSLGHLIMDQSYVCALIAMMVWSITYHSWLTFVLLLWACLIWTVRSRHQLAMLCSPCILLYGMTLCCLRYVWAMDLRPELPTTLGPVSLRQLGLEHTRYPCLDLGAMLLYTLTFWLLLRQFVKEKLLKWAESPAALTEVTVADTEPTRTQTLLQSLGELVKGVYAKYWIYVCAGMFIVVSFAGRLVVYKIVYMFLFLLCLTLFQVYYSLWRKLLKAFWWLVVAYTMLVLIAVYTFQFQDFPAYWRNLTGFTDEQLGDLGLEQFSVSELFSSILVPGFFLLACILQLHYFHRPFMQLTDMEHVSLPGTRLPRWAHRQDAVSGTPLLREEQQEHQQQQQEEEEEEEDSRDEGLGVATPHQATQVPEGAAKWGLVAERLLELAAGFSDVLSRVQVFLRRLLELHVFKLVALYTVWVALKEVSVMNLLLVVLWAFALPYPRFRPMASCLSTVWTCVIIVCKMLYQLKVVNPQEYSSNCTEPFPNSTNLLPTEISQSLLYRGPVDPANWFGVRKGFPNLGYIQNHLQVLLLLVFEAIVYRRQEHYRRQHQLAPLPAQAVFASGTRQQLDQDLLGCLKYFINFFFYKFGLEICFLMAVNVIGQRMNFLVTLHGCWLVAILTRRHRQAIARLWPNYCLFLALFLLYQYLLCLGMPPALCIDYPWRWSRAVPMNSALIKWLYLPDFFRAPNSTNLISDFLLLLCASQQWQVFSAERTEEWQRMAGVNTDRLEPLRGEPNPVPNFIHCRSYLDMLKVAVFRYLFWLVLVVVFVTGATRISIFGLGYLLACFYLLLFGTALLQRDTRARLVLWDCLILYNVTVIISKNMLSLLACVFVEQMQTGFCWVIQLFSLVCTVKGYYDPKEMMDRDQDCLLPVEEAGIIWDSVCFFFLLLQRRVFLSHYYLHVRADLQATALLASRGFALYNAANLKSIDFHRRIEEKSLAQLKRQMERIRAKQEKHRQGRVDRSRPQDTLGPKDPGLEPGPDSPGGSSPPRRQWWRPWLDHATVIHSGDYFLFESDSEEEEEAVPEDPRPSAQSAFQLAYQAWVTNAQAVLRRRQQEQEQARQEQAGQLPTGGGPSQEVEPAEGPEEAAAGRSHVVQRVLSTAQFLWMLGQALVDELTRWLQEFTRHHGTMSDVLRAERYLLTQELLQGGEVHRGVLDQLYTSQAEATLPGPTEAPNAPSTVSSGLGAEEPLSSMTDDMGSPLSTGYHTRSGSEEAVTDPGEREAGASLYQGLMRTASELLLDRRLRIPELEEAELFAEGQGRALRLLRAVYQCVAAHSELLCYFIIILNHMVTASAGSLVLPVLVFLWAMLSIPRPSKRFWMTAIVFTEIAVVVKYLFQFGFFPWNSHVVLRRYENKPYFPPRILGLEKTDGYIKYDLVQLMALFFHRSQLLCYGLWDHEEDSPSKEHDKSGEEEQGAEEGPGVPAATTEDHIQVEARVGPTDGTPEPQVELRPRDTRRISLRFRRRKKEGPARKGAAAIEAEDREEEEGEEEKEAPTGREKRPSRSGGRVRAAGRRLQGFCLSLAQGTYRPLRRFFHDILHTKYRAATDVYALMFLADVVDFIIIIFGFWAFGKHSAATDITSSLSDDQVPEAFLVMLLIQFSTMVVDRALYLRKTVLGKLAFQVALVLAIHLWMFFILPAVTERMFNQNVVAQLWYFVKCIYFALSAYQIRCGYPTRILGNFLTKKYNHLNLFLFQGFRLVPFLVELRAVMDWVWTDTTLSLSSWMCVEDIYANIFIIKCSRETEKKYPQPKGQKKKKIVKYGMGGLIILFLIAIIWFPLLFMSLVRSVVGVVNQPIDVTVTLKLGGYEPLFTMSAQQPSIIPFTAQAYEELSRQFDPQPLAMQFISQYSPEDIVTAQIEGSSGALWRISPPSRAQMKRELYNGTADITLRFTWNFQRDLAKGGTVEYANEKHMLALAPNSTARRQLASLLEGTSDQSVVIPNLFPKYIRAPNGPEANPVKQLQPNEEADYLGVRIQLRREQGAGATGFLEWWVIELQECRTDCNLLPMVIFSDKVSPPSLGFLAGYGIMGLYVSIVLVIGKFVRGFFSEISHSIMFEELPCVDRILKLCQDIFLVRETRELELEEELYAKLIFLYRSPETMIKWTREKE

[11] = Metabolic stability in mouse liver microsomes assessed as intrinsic clearance at 10 uM measured for 60 mins by LC-MS/MS analysis; assay type: ADME, Microsome; details: read-out: CLH
[12] = Toxicity in hind-limb unloading Sprague-Dawley rat model assessed as change in kidney function at 5 uM/kg, ip administered on day 1, 4, 7, 10, 13 and measured on day 14; assay type: organism-based; details: in vivo, 336 h, time 14 day
[13] = Metabolic stability in mouse liver microsomes assessed as half life at 10 uM measured for 60 mins by LC-MS/MS analysis; assay type: ADME, Microsome
[14] = Metabolic stability in human liver microsomes assessed as intrinsic clearance at 10 uM measured for 60 mins by LC-MS/MS analysis; assay type: ADME, Microsome; details: read-out: CLH
[15] = Apparent permeability in MDCK cells; assay type: ADME, cell-based, Canis lupus familiaris; details: dog
[16] = Aqueous solubility of compound at pH 7.4 incubated for 10 mins by HPLC analysis; assay type: physicochemical; details: aqueous medium
[17] = Metabolic stability in dog liver microsomes assessed as half life at 10 uM measured for 60 mins by LC-MS/MS analysis; assay type: ADME, Canis lupus familiaris, Microsome
[18] = Toxicity in hind-limb unloading Sprague-Dawley rat model assessed as change in liver function at 5 uM/kg, ip administered on day 1, 4, 7, 10, 13 and measured on day 14; assay type: organism-based; details: in vivo, 336 h, time 14 day
[19] = molecular target: T2, Piezo-type mechanosensitive ion channel component 1 (Mus musculus, UniProt E2JF22); assay: Agonist activity at Piezo1 in mouse C3H 10T1/2 cells assessed as influx of calcium ions incubated for 2 hrs by Cal-bryte 520 AM dye based analysis; assay type: cell-based
Target sequence in this assay (E2JF22 whole entry): as the sequence (E2JF22 whole entry) above

[20] = Metabolic stability in dog liver microsomes assessed as intrinsic clearance at 10 uM measured for 60 mins by LC-MS/MS analysis; assay type: ADME, Canis lupus familiaris, Microsome; details: read-out: CLH
[21] = Metabolic stability in human liver microsomes assessed as half life at 10 uM measured for 60 mins by LC-MS/MS analysis; assay type: ADME, Microsome
[22] = molecular target: T2, Piezo-type mechanosensitive ion channel component 1; assay: Agonist activity at mouse Piezo1 transfected in HEK293T cells expressing PZ1 mutant by fluorescence based assay; assay type: cell-based
Target sequence in this assay (E2JF22 whole entry, looked up): as the sequence (E2JF22 whole entry) above

[23] = molecular target: T1, Piezo-type mechanosensitive ion channel component 1; assay: Agonist activity at human Piezo1 transfected in HEK293T cells by FLIPR assay; assay type: cell-based

Row | SMILES | Percent change in calcium fluorescence ratio relative to control [1] [%] | Percent change in calcium fluorescence ratio relative to control ([1]; filed as agonist) [%] | also measured
1 | C[C@@H](O)CNc1cnc(-c2nnc(SCc3ccc4nnn(C)c4c3)s2)cn1 | 35.4 |  | 
2 | O=C1CC2(CCN(c3cnc(-c4nnc(SCc5c(Cl)cccc5Cl)s4)cn3)CC2)CN1 |  | 77.3 | 
3 | OCC1CN(c2cnc(-c3nnc(SCc4c(Cl)cccc4Cl)s3)cn2)C1 | 11.6 |  | 
4 | C[C@@H](O)CNc1cnc(-c2nnc(SCc3c(Cl)cccc3Cl)s2)cn1 |  | 106 | Activity [2]: Dose-dependent-effect; Activity [3]: Active; Activity [4]: Active; The Result Indicates That Compound Emulates Mechanical Stimulation To Activate Piezo1; Activity [5]: Active; Ratio EC50 [6]: 20; Activity [7]: Active; Activity [8]: Active; Activty Reached Almost That Of The Weight-Bearing; Percent change in calcium fluorescence ratio relative to control ([1]; filed as agonist, tested as the 2H-labelled form): 170%; Activity [9]: Active
5 | OC1CCN(c2cnc(-c3nnc(SCc4c(Cl)cccc4Cl)s3)cn2)CC1 | 2 |  | 
6 | OC1CN(c2cnc(-c3nnc(SCc4c(Cl)cccc4Cl)s3)cn2)C1 | 36 |  | 
7 | C[C@@H](O)CNc1cnc(-c2nnc(SCc3c(Cl)ccc(F)c3Cl)s2)cn1 |  | 91.4 | 
8 | CC(C)(O)[C@H](F)CNc1cnc(-c2nnc(SCc3c(Cl)cccc3Cl)s2)cn1 |  | 45.4 | 
9 | FC(F)(F)c1cccc(Cl)c1CSc1nnc(-c2cnccn2)o1 |  |  | Ratio EC50 [10]: 1.25
10 | FC1(F)CN(c2cnc(-c3nnc(SCc4c(Cl)cccc4Cl)s3)cn2)C1 | -8 |  | 
11 | CC(Sc1nnc(-c2cnc(NC[C@@H](C)O)cn2)s1)c1c(Cl)cccc1Cl (stereo partly drawn) |  | 164 | 
12 | O=C(O)c1ccc(-c2nnc(SCc3c(Cl)cccc3Cl)s2)cc1 |  |  | Ratio EC50 [10]: 4
13 | CC1(O)CN(c2cnc(-c3nnc(SCc4c(Cl)cccc4Cl)s3)cn2)C1 | 16.1 |  | 
14 | C[C@@H](O)CNc1cnc(-c2nnc(SC(c3c(Cl)cccc3Cl)C3CC3)s2)cn1 (stereo partly drawn) |  | 64.6 | 
15 | O[C@H]1CCN(c2cnc(-c3nnc(SCc4c(Cl)cccc4Cl)s3)cn2)C1 | 30.4 |  | 
16 | C[C@@H](O)CNc1cnc(-c2nnc(SCc3ccc4scnc4c3)s2)cn1 | 15.4 |  | 
17 | OCCOCCNc1cnc(-c2nnc(SCc3c(Cl)cccc3Cl)s2)cn1 |  | 56.3 | 
18 | O=C1CC2(CCN(c3cnc(-c4nnc(SCc5ccc6scnc6c5)s4)cn3)CC2)CN1 | 7.7 |  | 
19 | C[C@@H](O)CNc1ccc(-c2nnc(SCc3c(Cl)cccc3Cl)s2)nn1 |  | 71.3 | 
20 | C[C@@H](O)CNc1cnc(-c2nnc(SCc3ccccc3Cl)s2)cn1 |  | 61.9 | 

Row | SMILES | Percent change in calcium fluorescence ratio relative to control [1] [%] | Percent change in calcium fluorescence ratio relative to control ([1]; filed as agonist) [%] | also measured
21 | C[C@H](O)CNc1cnc(-c2nnc(SCc3c(Cl)cccc3Cl)s2)cn1 |  | 76.6 | 
22 | C[C@@H](O)CNc1cncc(-c2nnc(SCc3c(Cl)cccc3Cl)s2)n1 |  | 49.7 | 
23 | C[C@@H](O)CNc1ncc(-c2nnc(SCc3c(Cl)cccc3Cl)s2)cn1 |  | 41.7 | 
24 | O[C@@H]1CN(c2cnc(-c3nnc(SCc4c(Cl)cccc4Cl)s3)cn2)C[C@@H]1O |  | 74.5 | 
25 | OCCCNc1cnc(-c2nnc(SCc3c(Cl)cccc3Cl)s2)cn1 |  | 65.2 | 
26 | Cn1ncc2cc(CSc3nnc(-c4cnc(N5CCC6(CC5)CNC(=O)C6)cn4)s3)ccc21 |  | 71.6 | 
27 | O=C1CC2(CCN(c3cnc(-c4nnc(SCc5ccc6ncoc6c5)s4)cn3)CC2)CN1 | 31.2 |  | 
28 | [2H]C([2H])(Sc1nnc(-c2cnc(NC[C@@H](C)O)cn2)s1)c1c(Cl)cccc1Cl |  |  | microsomal CLint at 10 µM [11]: 88.4 µL/min/mg; Activity [12]: Non-toxic; half-life at 10 µM [13]: 15.7 min; microsomal CLint at 10 µM [14]: 83.2 µL/min/mg; Papp [15]: 21 ×10⁻⁶ cm/s; solubility at 10 min [16]: 57.9 µM (≈ 24.9 µg/mL); half-life at 10 µM [17]: 25.5 min; Activity [18]: Non-toxic; EC50 [19]: 44.2 µM; microsomal CLint at 10 µM [20]: 54.4 µL/min/mg; half-life at 10 µM [21]: 16.7 min
29 | Clc1cccc(Cl)c1CSc1nnc(-c2cnc(N3CC4(COC4)C3)cn2)s1 | 0.1 |  | 
30 | Cn1nnc2ccc(CSc3nnc(-c4cnc(N5CCC6(CC5)CNC(=O)C6)cn4)s3)cc21 | 38.8 |  | 
31 | C[C@@H](O)CNc1cnc(-c2nnc(SCc3c(Cl)ccnc3Cl)s2)cn1 |  | 69.7 | 
32 | C[C@@H](O)CNc1cnc(-c2nnc(SCc3c(F)cccc3F)s2)cn1 | 21 |  | 
33 | C[C@@H](O)CNc1cnc(-c2nnc(SCc3ccc4c(cnn4C)c3)s2)cn1 |  | 73.5 | 
34 | Cc1nnc(CNC(=O)Nc2ccc(C3CCCCC3)cc2)o1 |  |  | EC50 [22]: > 150 µM
35 | C[C@@H](O)CNc1cnc(-c2nnc(SCc3ccc4ncoc4c3)s2)cn1 |  | 50.4 | 
36 | Clc1cccc(Cl)c1CSc1nnc(-c2cnccn2)s1 | 30.7 |  | microsomal CLint at 10 µM [11]: > 277 µL/min/mg; half-life at 10 µM [13]: < 5 min; microsomal CLint at 10 µM [14]: 250 µL/min/mg; Papp [15]: 38 ×10⁻⁶ cm/s; solubility at 10 min [16]: 3.9 µM (≈ 1.39 µg/mL); half-life at 10 µM [17]: 1.33 min; EC50 [19]: 2.21 µM; microsomal CLint at 10 µM [20]: 1040 µL/min/mg; half-life at 10 µM [21]: 5.55 min; EC50 [23]: 17.1 µM
37 | Clc1cccc(Cl)c1CSc1nnc(-c2cnc(Br)cn2)s1 | 8 |  | 
38 | NC1=NC(=O)[C@H](CC(=O)Nc2ccc(SC(F)F)cc2)S1 |  |  | EC50 [22]: 12.9 µM
39 | CCC(Sc1nnc(-c2cnc(NC[C@@H](C)O)cn2)s1)c1c(Cl)cccc1Cl (stereo partly drawn) |  | 91.3 | 
